This note sets out measurements from patent publication US20070213291A1, “Therapeutically useful synthetic oligonucleotides” (priority 1999, published 2007).

Where two headings read alike, the source gives them in different places.

The test system of data set [1] is MCF-7 human breast cancer cells. As to the kind of experiment: MCF-7 human breast tumor xenografts in female nude BALB/c mice. In kind it is in vivo. To be noted: after 4 weeks of treatment, compared with other groups (group 1 saline). The method, then:
MCF-7 human breast cancer cells are implanted subcutaneously as xenografts, in female nude BALB/c mice. The mice are divided into 6 groups of 10 mice. […] After 4 weeks of treatment, the mice are sacrificed and tumor mass is determined.

Data set [2] shares this test system. Put plainly: Inhibition of MCF-7 cell proliferation (MTT). It counts as cell-based. To be noted: for inhibition at 1 µg/mL: Homo sapiens, MCF7. In short, it runs like this: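 Cells at 2.5×10^5 cells/ml (GT 3- and 6-base series at 5×10^5 cells/ml) treated with 100 μg/ml of 2-45-base oligonucleotide sequences versus untreated control for 48 h at 37 °C, 5% CO2. Proliferation read by MTT reduction at 570 nm.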

The subject of data set [3] is Jurkat human leukemia T cells. As to the kind of experiment: Inhibition of Jurkat human leukemia T cell proliferation (MTT reduction). The following applies: for % INHIBITION of Jurkat human leukemia T cell proliferation: 100 μg/ml sequence, 48 h, 2.5×10^5 cells/ml. In kind it is cell-based. In short, it runs like this:
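Read-out is MTT absorbance at 570 nm after 48 h. Sequences of 2 to 45 bases (A, C, G, T) tested at 100 μg/ml against untreated control, with 2.5×10^5 Jurkat cells/ml held at 37° C under 5% CO2.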
Background: Tetrazolium dyes change colour on reduction, which living cells bring about.

Data set [4] has as its system LNCaP human prostate cancer cells. Put plainly: LNCaP human prostate cancer xenografts in male nude nu/nu mice. The following applies: after 4 weeks of treatment, compared with other groups (group 1 saline, group 5 BCG A-3). In kind it is in vivo. Here is the method:
LNCaP human prostate cancer cells are implanted subcutaneously, as xenografts, in male nude nu/nu mice. The mice are divided into 5 groups of 10 mice. On day 0, group 1 mice receive saline, group 2 mice receive 3 base SEQ ID NO:8, group 3 mice receive 6 base GT SEQ ID NO:25, group 4 mice receive 6 base AG SEQ ID NO:45 and group 5 mice receive 45 base BCG A-3 SEQ ID NO:69. After 4 weeks of treatment, the mice are sacrificed and timor mass is determined.
On the technique in general: Xenograft models place foreign cells or tissue in a host animal.

The subject of data set [5] is PC-3 human prostate cancer cells. As to the kind of experiment: Inhibition of PC-3 cell proliferation (MTT). It counts as cell-based. To be noted: 100 μg/ml, 48 h, 5×10^5 cells/ml. Here is the method: Cells were seeded in 6 (1 ml/well), 24 (0.5 ml/well) or 96 (0.1 ml/well) well flat-bottom microplates and were maintained at 37° C. in a 5% CO2 atmosphere. Unless stated otherwise, 2.5×10^5 cells/ml were incubated with 0 μg/ml (control) and 100 μg/ml (treated) of 2 to 45 base sequences containing A, C, G and T for 48 h.
Cell proliferation was measured using dimethylthiazol-diphenyl-tetrazolium (MTT) reduction (Mosman et al. J. Immunol. Methods 65:55, 1983). MTT was measured at a wavelength of 570 nm using a multiplate spectrophotometer reader (ELX800, Bio-TEK Instruments Inc., Winooski, Vt.).
PC-3 prostate cancer cells are a p53 mutated, androgen-independent human solid tumor model. PC-3 cells (5×10^5 cells/ml) were incubated with 3 and 6 base GT sequences (Table 8).

Data set [6] deals with EL-4 murine T lymphoma cells. Put plainly: EL-4 murine T lymphoma in C57/BL6 mice. To be noted: after 4 weeks of treatment, compared with group 1 (saline). It counts as in vivo. Here is the method:
EL-4 murine T lymphoma cells are implanted into C57/BL6 mice. The mice are divided into 6 groups of 10 mice. On day 0, group 1 mice receive saline, group 2 mice receive 3 base GT SEQ ID NO:8, group 3 mice receive 6 base SEQ ID NO:25, group 4 mice receive 6 base AG SEQ ID NO:45, group 5 mice receive 18 base GT SEQ ID NO: 18 and group 6 mice receive 27 base GT SEQ ID NO:1. After 4 weeks of treatment, the mice are sacrificed and tumor mass is determined.

Data set [7] deals with Jurkat human leukemia T cells. As to the kind of experiment: NuMA release into supernatant (ELISA). In kind it is cell-based. The following applies: Jurkat, 50 μM sequence. Summed up:
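Jurkat T cells (1×10^6/ml) exposed to GT-containing oligonucleotide sequences, at 50 μM in some experiments, for 24 h in some experiments. NuMA released into the supernatant quantified by commercial ELISA.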

The subject of data set [8] is Jurkat human leukemia T cells. Put plainly: Apoptosis by phosphatidylserine/annexin V-FITC flow cytometry. In kind it is cell-based. The following applies: 50 μM sequence. Summed up: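 Jurkat cells were exposed to 3–7-base oligonucleotides (GT, ACGT, AG, GG, AGT, CGT sequences) at 50 μM. Separately, 6-base GT and complementary AC sequences, alone or hybridized 1:1 (10 min, 65 °C), were applied for 24 h. Phosphatidylserine exposure was quantified by flow cytometry with FITC-annexin V.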
A general note: In flow cytometry, cells or beads pass a laser one at a time.

Another data set concerns rhesus monkey PBMCs. Put plainly: Cytokine production by rhesus monkey PBMC (ELISA). To be noted: PBMC of 4 healthy rhesus monkeys, 100 μg/ml, 48 h. In kind it is cell-based. Summed up: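 Peripheral blood mononuclear cells taken from 4 healthy rhesus monkeys were cultured at 1×10^6 cells with 100 μg/ml of each test sequence for 48 h at 37° C. under 5% CO2. Cytokine levels in 100 μl of supernatant were quantified in pg/ml by commercial ELISA and reported as fold increase over untreated control cells.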

For data set [9], the system named is THP-1 human acute monocytic leukemia cells. As to the kind of experiment: Cytokine production by THP-1 cells (ELISA). It counts as cell-based. To be noted: THP-1, 1×10^6 cells, 100 μg/ml, 48 h; for ↑ IL-12 (fold increase treated vs control cells): p70 complex and free p40. Summed up:
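Read-out is fold increase in supernatant cytokine versus control cells, measured by ELISA (IL-12 ELISA counts p70 complex plus free p40). Unless noted, sequences were tested at 100 μg/ml on 1×10^6 cells, incubated 48 h, 37° C, 5% CO2.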

In data set [10] the test system is human peripheral blood mononuclear cells. Put plainly: Cytokine production by human PBMC (ELISA). It counts as cell-based. To be noted: PBMC of 7 healthy humans, 100 μg/ml, 48 h. Summed up: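 PBMC from 7 healthy donors, Ficoll-isolated; 1×10^6 cells incubated with 100 μg/ml oligonucleotide sequence for 48 h at 37 °C, 5% CO2. IL-1beta, IL-6, IL-10, IL-12 (p70 plus free p40) and TNF-alpha measured by ELISA in supernatant, expressed as fold increase over control cells.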

A further data set has as its system chimpanzee PBMCs. As to the kind of experiment: Cytokine production by chimpanzee PBMC (ELISA). To be noted: PBMC of 4 healthy chimpanzees, 100 μg/ml, 48 h. In kind it is cell-based. Summed up:
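PBMCs from 4 healthy chimpanzees (1×10^6 cells) were incubated 48 h at 37 °C, 5% CO2 with 100 μg/ml of each 6-base sequence. Supernatant IL-10, IL-12 (p70 plus free p40) and TNF-alpha were measured by ELISA. Values are fold increase over untreated control cells.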

In data set [11] the test system is Jurkat human leukemia T cells. As to the kind of experiment: Cell cycle stage in Jurkat cells (propidium iodide flow cytometry). In kind it is cell-based. To be noted: Jurkat, 24 h, 100 μg/ml. In short, it runs like this: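 Phase distribution (G0/G1, early, mid and late S, G2/M) came from flow cytometry with doublet discrimination on propidium iodide-stained nuclei. Jurkat cells were given 24 h exposure to 2–45-base oligonucleotides, or at 1×10^6 cells/ml to single 6-base GT or AC strands heated 10 min at 65 °C or 1:1 hybridized duplex.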

The mark [12] stands for this setting: 5-fluorouracil 0.1 μg/ml, alone or with sequence at 1.0 μg/ml.

In the case of `CC/C(=C(\c1ccccc1)c1ccc(OCCN(C)C)cc1)c1ccccc1` [Tamoxifen, reference compound], the tumor mass result in [1] is reported as “less tumor mass than group 1 mice”. Moreover, the inhibition at 1 µg/mL in data set [2] (tamoxifen 1.0 μg/ml, alone or with sequence at 1.0 μg/ml, read-out: % INHIBITION of MCF-7 proliferation, Tamoxifen 1.0 μg/ml) stood at 18%. Besides, the “% INHIBITION of MCF-7 proliferation, Tamoxifen 0.1 μg/ml” value in [2] (tamoxifen 0.1 μg/ml, alone or with sequence at 1.0 μg/ml) is given as 10%. In addition, the “% INHIBITION of MCF-7 proliferation, Tamoxifen 10.0 μg/ml” value in data set [2] (tamoxifen 10.0 μg/ml, alone or with sequence at 1.0 μg/ml) is 15%.

Take “GTG (chemistry not given here) [SEQ ID NO:8]”: the “% INHIBITION of Jurkat human leukemia T cell proliferation” value in data set [3] worked out at 46%. For the same molecule, the tumor mass result in data set [4] is “less tumor mass than groups 1 and 5 mice”; in data set [6], “less tumor mass than group 1 mice”. For the same molecule, in data set [5], the “% INHIBITION of PC-3 human prostate cancer cell proliferation” value was found to be 13%. The “% INHIBITION of MCF-7 human breast cancer cell proliferation” value in [2] (100 μg/ml, 48 h, 5×10^5 cells/ml) amounted to 18%. Further, in data set [7], the “% NuMA released (treated vs untreated cells)” value is 97%. In addition, in data set [8], the “% of cells in apoptosis (positive for PS/A-V staining)” value was 21%.

As for GGGAGG (unmodified DNA) [SEQ ID NO:45], in the data set with rhesus monkey PBMCs, the “IL-10 fold increase: mean +/− SD” value is reported as 1.1 +/− 0.1 fold increase, the “IL-12 fold increase: mean +/− SD” value is given as 11.9 +/− 4.5 fold increase and the “TNF-alpha fold increase: mean +/− SD” value is reported as 16.7 +/− 4.6 fold increase. Besides, in data set [9], the “↑ IL-6 (fold increase treated vs control cells)” value stood at 23.2x and the “↑ IL-12 (fold increase treated vs control cells)” value is listed as −1.6x. In [10], the “IL-1 beta fold increase: mean +/− SD” value is 13.6 +/− 14.9 fold increase, the “IL-6 fold increase: mean +/− SD” value is reported as 24.7 +/− 16.5 fold increase, the “IL-10 fold increase: mean +/− SD” value is 6.0 +/− 5.5 fold increase and the “IL-12 fold increase: mean +/− SD” value is on record as 20.7 +/− 10.3 fold increase. In addition, the “% INHIBITION of Jurkat human leukemia T cell proliferation” value in data set [3] is on record as 28%. For the same molecule, the tumor mass entry in data set [4] is “less tumor mass than groups 1 and 5 mice”. For the same molecule, the tumor mass result in data set [6] is given as “less tumor mass than group 1 mice”. Further, in the data set on chimpanzee PBMCs, the “IL-10 fold increase: mean +/− SD” value was 9.9 +/− 9.2 fold increase, the “IL-12 fold increase: mean +/− SD” value was 15.9 +/− 10.7 fold increase and the “TNF-alpha fold increase: mean +/− SD” value is given as 14.5 +/− 6.9 fold increase. Also, in data set [7], the “% NuMA released (treated vs untreated cells)” value came to 74%. Also, the “% of cells in apoptosis (positive for PS/A-V staining)” value in data set [8] is given as 27%.

Regarding `O=c1[nH]cc(F)c(=O)[nH]1` [5-Fluorouracil, reference compound], the tumor mass entry in [1] was “less tumor mass than group 1 mice”. Also, the “% INHIBITION of Jurkat proliferation, 5-Fluorouracil 0.1 μg/ml” value in data set [3] (setting [12]) is 3%. Besides, in [3] (5-fluorouracil 10.0 μg/ml, alone or with sequence at 1.0 μg/ml), the “% INHIBITION of Jurkat proliferation, 5-Fluorouracil 10.0 μg/ml” value is 38%. In addition, the inhibition at 1 µg/mL in data set [3] (Homo sapiens, Jurkat, 5-fluorouracil 1.0 μg/ml, alone or with sequence at 1.0 μg/ml) is 14%; in [2] (5-fluorouracil 1.0 μg/ml, alone or with sequence at 1.0 μg/ml, read-out: % INHIBITION of MCF-7 proliferation, 5-Fluorouracil 1.0 μg/ml), 28%. Besides, the “% INHIBITION of MCF-7 proliferation, 5-Fluorouracil 0.1 μg/ml” value in [2] (setting [12]) is on record as 13%.

On to “TCCATCGCCAAGGAGATCGAGCTGGAGGATCCGTACGAGAAGATC (unmodified DNA) [BCG A-3, reference compound]”, for which, in data set [9], the “↑ IL-6 (fold increase treated vs control cells)” value came to 2.5x and the “↑ IL-12 (fold increase treated vs control cells)” value is recorded as 1.7x. Moreover, in data set [11], the “% of cells in phase: G0/G1” value is on record as 32.3%, the “% of cells in phase: G2/M” value came to 21.4%, the “% of cells in phase: SE” value is reported as 20.2% and the “% of cells in phase: SL” value is 12.0%. Also, in [11], the “% of cells in phase: SM” value was found to be 14.1% and the “Arrest (cell cycle)” value is on record as “None”. Further, the “% INHIBITION of Jurkat human leukemia T cell proliferation” value in data set [3] amounted to 24%. For the same molecule, the tumor mass entry in [4] is listed as “less tumor mass than group 1 mice”.
